ChEMBL document CHEMBL3507680, “University of Dundee, Gates Library screen for HepG2 cell viability”

experiment: Human HepG2 cell viability assay in 384 well format; assay type: toxicity, cell-based; set-up: dose 125 nL, time 70.5 hour; cytotoxicity at 70.5 h: concentration not given beside the values; conditions: HepG2 cells, read-out: Inhibition

SMILES | cytotoxicity at 70.5 h
Clc1ccc(CN2CCCCC2Cn2cncn2)c2ncccc12 (stereo not drawn) | -0.976%
CS(=O)(=O)N1CC[C@H]2O[C@H](C(=O)NCc3cccnc3)CC[C@H]21 | 0.629%
CC(=O)N1CCC2(CC1)CN(C)CC[C@H]2C(F)(F)F | -4.42%
Cc1ccc(N2Cc3cnn(C)c3C(COCC3CC3)C2)nn1 (stereo not drawn) | -4.86%
CC(C)c1noc(CN2CCN(C(=O)OC(C)(C)C)C(C)C2)n1 (stereo not drawn) | 7.76%
F[C@@H]1CN(Cc2cccnc2)C[C@@H]1OCc1nc2ccccc2[nH]1 | -3.79%
Cc1ccccc1CCCN(C)S(C)(=O)=O | -3.41%
Cc1ccc(-n2nnc(C(=O)NCCS(N)(=O)=O)c2C2CC2)cc1 | -18.3%
CO[C@H]1CN(CC2CC2)[C@@H]2CCCO[C@H]12 | -9.81%
Cc1cccc(C(=O)N2CCn3c(CN4CCN(C)CC4)cnc3C2)n1 | -7.95%
CCn1ncc2c(C(F)(F)F)cc(-c3ccn(C)n3)nc21 | -8.47%
COc1cccc(-c2n[nH]c3c2CN(C(=O)c2cc(C)n(C)n2)CC3)c1 | -7.15%
CCN1CCN(C(=O)c2ccnc(N(C)C)c2)CC1 | 3.26%
NC(=O)c1csc(N2CCN(Cc3cccc4nsnc34)CC2)n1 | 15.7%
COc1cc(C(=O)N2CCC(c3n[nH]c(C)n3)CC2)cc(OC)c1C | -3.07%
CN(C)c1ccc(-c2cc(C(=O)O)cc(S(=O)(=O)NC3CC3)c2)cc1 | -12.9%
CC(=O)N[C@@H]1CN(Cc2ccco2)C[C@H]1c1ccc(C)o1 | -6.07%
O=C(O)CC1CN(Cc2ccccc2)CCO1 (stereo not drawn) | -0.381%
O=C1N(c2ccsc2)CCC12CCCN(c1ncc(F)cn1)C2 (stereo not drawn) | -9.83%
CCN1CCN(c2ncc3c(=O)n(Cc4ccco4)ccc3n2)CC1 | -5.38%
Cc1cccc(C(C(=O)NCC2(Cn3nc(C)cc3C)CC2)N(C)C)c1 (stereo not drawn) | -2.42%
CN1CCCCC1CCC(=O)NCCCn1nccc1C1CC1 (stereo not drawn) | -11.4%
COC[C@]1(O)CCN(Cc2ccc(N(C)C)nc2)CC1(C)C | -17.9%

SMILES | cytotoxicity at 70.5 h
CC1CN(C)CCN1C(=O)Nc1nc(-c2cccn2C)cs1 (stereo not drawn) | -13.9%
CN1CCOC(C(=O)Nc2nc(-c3ccc4c(c3)CCC4)n[nH]2)C1 (stereo not drawn) | -6.75%
Fc1cccc(N2CCOC3(CCCN(c4nncs4)C3)C2)c1 (stereo not drawn) | -2.67%
Cc1ccc(CC(=O)N2CCCn3nnc(Cn4cccn4)c3C2)cc1 | -9.04%
CCc1ncc(C(=O)NCCNc2ccncc2)s1 | -0.807%
COc1cnc(C2(O)CCN(C(=O)c3ccncc3)CC2)c(OC)n1 | -4.69%
COc1ccc2cccc(CC(=O)NCCCc3n[nH]c(C)n3)c2c1 | 4.93%
Cc1ccc(OCC2CCCN(Cc3ccc(CO)o3)C2)cc1 (stereo not drawn) | -3.39%
Cc1nn(C)c(C)c1C1CCCN1Cc1nc2ccccc2o1 (stereo not drawn) | -4.38%
O=C(c1ccco1)N1CCC(n2nc(-c3cccs3)ccc2=O)CC1 | -5.47%
COc1ccc(CNC(=O)CCn2cc(C)cn2)cc1C | 26.7%
CC(C)NC(=O)c1ccc2nnc(C3CCN(C(=O)NC(C)C)C3)n2c1 (stereo not drawn) | -0.652%
CC1C(=O)NCCN1CCOc1ccc(C#N)cc1 (stereo not drawn) | -21.1%
O=c1[nH]c(N2CC(O)C2)nc2c1cnn2-c1ccccc1 | -9.7%
CNC(=O)C1CCN(C(=O)c2cccn2Cc2cccs2)CC1 | -8.46%
Cc1nccc(-c2cccc(NCC(=O)N3CCNC3=O)c2)n1 | -0.295%
CC(C)Cc1noc(CN2CCCC2c2noc(C3CC3)n2)n1 (stereo not drawn) | -10.4%
Cc1oncc1C(=O)N1CCOCC2(CCN(c3ccccn3)C2)C1 (stereo not drawn) | -3.11%
O=C(CCn1cnc2cc(F)c(F)cc21)N1CCN2CCCCC2C1 (stereo not drawn) | -1.04%
CN(C)Cc1cc(C2CCCCN2S(=O)(=O)Cc2ccccc2)nn1C (stereo not drawn) | -14.1%
NCCn1nc(C2CCN(C(=O)Cc3ccccc3)C2)c2nccnc21 (stereo not drawn) | -5.36%
Cn1ccnc1C1CCN(CCC2CCOC2)CC1 (stereo not drawn) | 14.8%
COc1ccc2[nH]c(=O)c(CN(C)CCN3CCCC3)cc2c1 | 57.1%

SMILES | cytotoxicity at 70.5 h
Cn1ccnc1CN1CCCC(Cc2ccccn2)C1 (stereo not drawn) | 34.7%
Cc1nn(C)c2cnn(CC(=O)NCc3ccccc3F)c12 | -8.04%
CCc1ccc(NC(=O)N2C[C@H]3C[C@H](C(=O)N4CCCC4)[C@@H](C2)O3)cc1 | 21%
Cc1cnc(C)c(N2CCC(Cc3ccccc3Cl)(C(=O)O)CC2)n1 | -8.45%
CC(NC(=O)NCCCn1cccn1)c1ccc2c(c1)NC(=O)CO2 (stereo not drawn) | 46.4%
CC(=O)NCc1ccc(C(=O)N2CCCC2c2cnn(C)c2)cc1 (stereo not drawn) | -6.89%
CCc1ccc(CNC2(c3ccc(F)cc3)CCOCC2)o1 | -5.73%
Cc1ccc(NC(=O)NC(C)Cn2cccn2)cc1 (stereo not drawn) | -11.9%
COc1ccc(C[C@H]2CN(C3CCOCC3)CC[C@H]2OCC2CC2)cc1 | 20%
COCc1cncc2c1CCN(Cc1cnn(C)c1)C2 | 10.6%
COC(=O)NC1(C(=O)NCc2ccc(-c3ccn[nH]3)cc2)CCCC1 | -0.909%
O=C(NCc1cc[nH]n1)NCC(O)c1ccc(F)c(F)c1 (stereo not drawn) | 1.18%
CCc1n[nH]c(C2CN(C(=O)CCCn3cccn3)CCO2)n1 (stereo not drawn) | 2.59%
Cc1cc(S(=O)(=O)N2CCCc3ccccc32)sc1C(=O)O | -12.2%
Cc1cc(C)cc(NC(=O)CN2CCCC(n3cncn3)C2)c1 (stereo not drawn) | -3.52%
Nc1nc(CCCNC(=O)c2ccccc2C2CCNC2)cs1 (stereo not drawn) | -20.9%
Cc1cnc(CN2CCCC(c3cc(C(F)(F)F)[nH]n3)C2)cn1 (stereo not drawn) | -1.33%
CCN(CC(=O)Nc1cc(Cl)ccc1C)C(=O)c1ccncc1 | -1.81%
COC[C@]12COC[C@H]1CN(Cc1ccc3ccccc3n1)C2 | -3.53%
COc1ccnc(C(=O)N2CCCC(c3noc(C)n3)C2)c1 (stereo not drawn) | -12.8%
COc1ncc(C(F)(F)F)c(C(=O)O)c1Cl | 24.8%
Cc1c(F)cccc1NC(=O)N(C(C)CS(C)(=O)=O)C1CC1 (stereo not drawn) | -4.32%
CN1N=C(C(=O)N2CCCC(CCc3cccc(F)c3)C2)CCC1=O (stereo not drawn) | -3.78%

SMILES | cytotoxicity at 70.5 h
Cc1cc(C)nc(N2CC[C@@]3(O)CCN(S(=O)(=O)N(C)C)C[C@H]3C2)n1 | 16.5%
O=C(CNCC1(O)CCCN(Cc2cccc(F)c2F)C1=O)NC1CC1 (stereo not drawn) | -1.7%
Cc1nc(N2CCC(C(O)c3nccn3C)CC2)c2cccnc2n1 (stereo not drawn) | 18.9%
Cc1cnc(N2CCCOC(CN3CCCCC3)C2)nc1 (stereo not drawn) | -5.72%
Cc1cc(C)c(C(=O)N2CCCC(O)(CN3CCCC3)C2)cc1C (stereo not drawn) | -4.19%
CC(C)N1CCCC2(CCN(C(=O)CCCn3cccn3)C2)C1=O (stereo not drawn) | 6.53%
COc1cc(CNC(=O)C2CC(=O)N(C(C)C)C2)ccn1 (stereo not drawn) | -16.6%
CCCc1noc(CCCC(=O)N2CCCC(n3ccnc3C)C2)n1 (stereo not drawn) | -2.44%
O=C(NCc1cccnc1)N1CCc2ncnc(NC3CC3)c2CC1 | 11.7%
CCNC(=O)NC(=O)CSC(C)c1c(F)cccc1F (stereo not drawn) | 10.3%
NC(=O)C(CNC(=O)CCc1ccccc1)Cc1ccc(F)cc1 (stereo not drawn) | -2.33%
Cc1cnn(C2CCCN(C(=O)c3ccc(N4CCCC4)nn3)C2)c1 (stereo not drawn) | 1.64%
O=C(C1CC=CC1)N1CC[C@@H](O)[C@H]1Cc1cccnc1 | 1.93%
CC(C)OCc1nn(C)c2c1CN(Cc1cccs1)CC2 | -2.74%
Cc1ccnc(NCc2cccc(OCCN3CCOCC3)c2)n1 | 32.7%
CCCn1cc(-c2cc(C(=O)N(C)C)c3ccc(C)cc3n2)cn1 | -9.76%
CN(C)CC1(O)CCN(C(=O)Cc2ccc3c(c2)CCCC3)C1 (stereo not drawn) | -7%
OC[C@H]1CN2CCN(c3ccccn3)C[C@@H]2[C@@H]1c1ccccc1 | -5.54%
O=C([C@H]1C[C@H]2OCC[C@H]2N(C(=O)c2ccncc2)C1)N1CCCC1 | -5.12%
O=c1cc(CN2CC[C@@]3(O)CCCC[C@H]3C2)c2cccc3c2n1CCC3 | -11.8%
COc1ncccc1CNC(=O)c1cccc(C)n1 | 11.1%
CN(Cc1cnccn1)c1cncc(Br)c1 | -22%
COc1cccc(CNC(C)C)c1OCc1ccc(C)cc1 | -3.04%

SMILES | cytotoxicity at 70.5 h
Cc1cc(C)c(C(=O)N2CCC3(CCCNC3)C2)cc1C (stereo not drawn) | 25.6%
Cc1noc(C)c1CN1CCN(Cc2nccn2C)C(C)C1 (stereo not drawn) | -11.9%
O=C1CC(c2ccncc2)C2(CCN(CCc3ccccc3)CC2)N1 (stereo not drawn) | -6.87%
CC(C)Cc1ncc2c(n1)CN(C(=O)c1ccc(Cn3ccnc3)o1)C2 | -17.7%
Cc1nc(CN(C)C2CCN(CC(=O)N3CCOCC3)C2)no1 (stereo not drawn) | -12.6%
OC(CN1CCCCCCC1)c1ccc(OC(F)(F)F)cc1 (stereo not drawn) | 7.33%
COCCN(C)Cc1ccc(OC)c(OC(F)F)c1 | -5.27%
Cc1cc(C(=O)NCC(O)c2ccc(Cl)s2)c(C)o1 (stereo not drawn) | -10.3%
CC(c1ccc(Cl)cc1)N1CCN(CCNS(C)(=O)=O)CC1 (stereo not drawn) | -0.037%
O=C(Cc1csc(-c2ccccn2)n1)NCCCN1CCCCCC1=O | -76.6%
Cc1ccc(NS(=O)(=O)CC2=NC(=O)n3cccc3C2=O)cc1 | -36.1%
Cc1cc(C)nc(-n2nc(C)c3c2NC(=O)CSC3c2cnn(C)c2)n1 (stereo not drawn) | -31.4%
Cc1nc(C)n(CC2CCCCN2c2ccnc(-c3ccccc3)n2)n1 (stereo not drawn) | 5.38%
Cc1cccc(CN2C[C@@H]3COC[C@]3(COc3cccnc3)C2)n1 | -120%
NC(=O)c1cccc(CC2CCN(C(=O)CCc3cccc(F)c3)C2)c1 (stereo not drawn) | -8.51%
O=C(c1ccccc1)N1Cc2nccn2CC(Cn2ncccc2=O)C1 (stereo not drawn) | -6.78%
COc1ccc(NC(=O)Cn2nc(C)c(C)cc2=O)cc1OC | 12.7%
Cc1ncc2c(n1)CN(CC(=O)Nc1c(C)nn(C)c1C)CC2 | -1.17%
O=S1(=O)NCC2(CCN(Cc3ccc(Cl)s3)C2)Oc2ncccc21 (stereo not drawn) | 17.2%
O=C(c1cccnn1)N1C[C@@H]2CC[C@H](Oc3cccc(F)c3)[C@@H]2C1 | 14.9%
Cc1nn(Cc2ccccc2)c(C)c1CNC1CCc2ncnn2C1 (stereo not drawn) | 0.852%
